Measurements reported in article PMC11676982, “Heterotropic Activation of Cytochrome P450 3A4 by Perillyl Alcohol” (Pharmaceutics, 2024).

Experiments:
CYP1A2 = molecular target: T1, CYP1A2 (Homo sapiens, UniProt P05177); assay: Direct CYP inhibition assay in pooled HLMs, CYP1A2 (phenacetin); settings: up to 50 μM
T1 sequence (P05177 1-516): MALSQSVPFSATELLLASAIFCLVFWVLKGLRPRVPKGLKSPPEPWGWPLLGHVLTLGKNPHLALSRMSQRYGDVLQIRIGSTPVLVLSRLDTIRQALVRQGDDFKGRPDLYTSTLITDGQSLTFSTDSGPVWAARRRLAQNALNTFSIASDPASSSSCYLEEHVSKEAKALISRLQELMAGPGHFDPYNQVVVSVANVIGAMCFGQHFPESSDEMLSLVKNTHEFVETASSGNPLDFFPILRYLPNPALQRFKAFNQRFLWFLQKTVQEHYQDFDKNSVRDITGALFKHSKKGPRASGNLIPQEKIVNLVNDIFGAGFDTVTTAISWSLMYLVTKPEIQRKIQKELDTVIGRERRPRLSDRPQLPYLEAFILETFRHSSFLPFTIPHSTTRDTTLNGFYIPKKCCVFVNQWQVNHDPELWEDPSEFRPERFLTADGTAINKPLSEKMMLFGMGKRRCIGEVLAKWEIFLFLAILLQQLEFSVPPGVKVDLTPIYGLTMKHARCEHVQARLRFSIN

rCYP3A4 = molecular target: T2, rCYP3A4 (Homo sapiens, UniProt P08684); assay: Enzyme activity assay using rCYP3A4 with or without cytochrome b5 (MDZ 1′-hydroxylation); type: biochemical
T2 construct: host or cells: baculovirus-transfected insect cells
T2 sequence (P08684 whole entry): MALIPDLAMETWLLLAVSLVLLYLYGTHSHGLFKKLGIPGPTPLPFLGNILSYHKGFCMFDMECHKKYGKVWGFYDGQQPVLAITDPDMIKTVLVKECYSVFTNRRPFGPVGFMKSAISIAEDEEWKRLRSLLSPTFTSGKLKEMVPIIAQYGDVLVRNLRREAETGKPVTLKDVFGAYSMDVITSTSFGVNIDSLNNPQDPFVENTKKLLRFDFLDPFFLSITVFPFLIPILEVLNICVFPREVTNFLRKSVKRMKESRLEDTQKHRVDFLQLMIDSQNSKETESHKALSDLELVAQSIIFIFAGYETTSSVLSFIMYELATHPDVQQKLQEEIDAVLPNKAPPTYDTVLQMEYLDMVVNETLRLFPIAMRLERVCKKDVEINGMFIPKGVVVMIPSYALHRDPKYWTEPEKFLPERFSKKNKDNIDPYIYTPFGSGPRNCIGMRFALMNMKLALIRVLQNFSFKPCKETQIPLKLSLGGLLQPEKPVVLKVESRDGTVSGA
Experimental: Incubation mixtures (final volume, 200 μL) contained 0.1 M PPB (pH 7.4), 50 pmol/mL rCYP3A4 with or without cytochrome b5, 1 mM NADPH, 5 μM MDZ, and POH (0–100 μM). After preincubating for 5 min, the reactions were initiated by adding 1 mM NADPH and incubated for 10 min. […] The experiment was performed using three separate samples.

CYP2B6 [1] = molecular target: T3, CYP2B6 (Homo sapiens, UniProt P20813); assay: biochemical
T3 sequence (P20813 1-491): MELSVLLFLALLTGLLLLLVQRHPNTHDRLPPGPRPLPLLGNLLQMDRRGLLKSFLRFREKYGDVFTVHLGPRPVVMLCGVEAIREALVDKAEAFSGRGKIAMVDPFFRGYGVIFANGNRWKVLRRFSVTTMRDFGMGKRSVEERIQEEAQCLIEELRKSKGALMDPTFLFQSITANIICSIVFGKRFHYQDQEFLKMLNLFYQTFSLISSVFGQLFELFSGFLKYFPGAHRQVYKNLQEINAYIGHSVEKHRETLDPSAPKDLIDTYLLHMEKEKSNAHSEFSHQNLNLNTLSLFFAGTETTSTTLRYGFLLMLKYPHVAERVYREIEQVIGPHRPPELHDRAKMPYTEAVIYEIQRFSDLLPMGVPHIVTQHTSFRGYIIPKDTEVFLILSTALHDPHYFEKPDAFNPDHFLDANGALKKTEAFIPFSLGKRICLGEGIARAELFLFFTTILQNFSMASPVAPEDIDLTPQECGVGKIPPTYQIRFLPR
Experimental: (§1) A 5 min pre-incubation was performed prior to initiating reactions with the addition of 1 mM NADPH. After incubation at 37 °C for 10 min, 200 μL of ice-cold acetonitrile containing 100 nM carbamazepine as an internal standard was added to terminate the reaction. The samples were agitated and centrifuged at 4 °C for 20 min at 3000× g. The supernatants were transferred to a 96-well plate for LC-MS/MS analysis. The experiment was performed using three separate samples.
(§2) Data acquired from the evaluation of enzyme inhibition using various concentrations of substrates and test compounds were fit to different models (competitive, noncompetitive, uncompetitive, or mixed), and inhibition constant (Ki) and goodness of fit values were obtained using GraphPad Prism. The appropriate type of inhibition was selected based on statistical goodness of fit tests including Akaike’s information criterion (AICc) with correction for small sample size and the standard deviation of the residuals (Sy.x).

CYP3A4 [2] = molecular target: T4, CYP3A4 (Homo sapiens, UniProt P08684)
T4 sequence (P08684 whole entry): as the sequence (P08684 whole entry) above

CYP2A6 = molecular target: T5, CYP2A6 (Homo sapiens, UniProt P11509); assay: Metabolism-dependent inhibition assay (IC50 shift) in pooled HLMs, CYP2A6; settings: substrate coumarin; for IC50: CYP2A6, pooled HLMs, 95% CI in parentheses
T5 sequence (P11509 1-494): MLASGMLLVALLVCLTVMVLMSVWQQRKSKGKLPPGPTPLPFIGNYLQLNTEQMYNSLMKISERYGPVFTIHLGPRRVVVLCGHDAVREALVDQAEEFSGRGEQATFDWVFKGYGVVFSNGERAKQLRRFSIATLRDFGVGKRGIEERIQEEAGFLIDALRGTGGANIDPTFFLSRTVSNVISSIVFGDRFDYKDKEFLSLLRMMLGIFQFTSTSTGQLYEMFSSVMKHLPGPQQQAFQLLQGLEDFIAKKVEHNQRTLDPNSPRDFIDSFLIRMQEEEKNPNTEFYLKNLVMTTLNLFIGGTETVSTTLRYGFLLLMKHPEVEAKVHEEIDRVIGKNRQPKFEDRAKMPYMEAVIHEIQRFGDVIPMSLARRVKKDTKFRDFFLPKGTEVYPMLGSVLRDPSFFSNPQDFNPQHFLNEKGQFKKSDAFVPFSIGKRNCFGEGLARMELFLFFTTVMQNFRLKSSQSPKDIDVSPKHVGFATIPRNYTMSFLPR
Experimental: The experiments for determining metabolism-dependent inhibition were conducted utilizing a non-dilution method. […] The pre-incubation was initiated by the addition of 1 mM NADPH and incubation for 30 min. Subsequently, final incubation was performed with the addition of a substrate (5 μM coumarin or 50 μM bupropion) in the presence of NADPH for 10 min; the total volume of the mixture was 200 μL. […] Mixtures were subjected to centrifugation at 3000× g for 20 min at 4 °C, and the supernatants were analyzed using LC-MS/MS. The experiment was performed using three separate samples.
The CYP-mediated activities in the presence of test substances were expressed as percentages of the corresponding control values.

CYP3A4 [3] = molecular target: T4, CYP3A4; assay: Effect of POH on the metabolism of other CYP3A4 substrates in pooled HLMs; type: in vitro ADME; settings: (−)-POH 3.2–100 μM, substrates near Km
Experimental: The substrates were applied at a concentration that approximated their Km values. The reactions were preincubated for 5 min before being initiated with the addition of 1 mM NADPH. After 10 min incubation, reactions containing atorvastatin, buspirone, FMS, or nifedipine were terminated by the addition of 200 μL of ice-cold acetonitrile with 100 nM carbamazepine as an internal standard. For terminating reactions with donepezil or tadalafil, 200 μL of ice-cold methanol containing 0.5% (v/v) formic acid and 1 μM carbamazepine as internal standard was added to samples. […] The experiment was performed using three separate samples.

CYP2B6 [4] = molecular target: T3, CYP2B6; assay: Determination of CYP inhibition mode and Ki in pooled HLMs, CYP2B6-mediated bupropion hydroxylation
Experimental: as §1, §2

CYP2C9 = CYP2C9 (Homo sapiens, UniProt P11712); assay: Direct CYP inhibition assay in pooled HLMs, CYP2C9 (tolbutamide)
CYP2C9, sequence (P11712 whole entry): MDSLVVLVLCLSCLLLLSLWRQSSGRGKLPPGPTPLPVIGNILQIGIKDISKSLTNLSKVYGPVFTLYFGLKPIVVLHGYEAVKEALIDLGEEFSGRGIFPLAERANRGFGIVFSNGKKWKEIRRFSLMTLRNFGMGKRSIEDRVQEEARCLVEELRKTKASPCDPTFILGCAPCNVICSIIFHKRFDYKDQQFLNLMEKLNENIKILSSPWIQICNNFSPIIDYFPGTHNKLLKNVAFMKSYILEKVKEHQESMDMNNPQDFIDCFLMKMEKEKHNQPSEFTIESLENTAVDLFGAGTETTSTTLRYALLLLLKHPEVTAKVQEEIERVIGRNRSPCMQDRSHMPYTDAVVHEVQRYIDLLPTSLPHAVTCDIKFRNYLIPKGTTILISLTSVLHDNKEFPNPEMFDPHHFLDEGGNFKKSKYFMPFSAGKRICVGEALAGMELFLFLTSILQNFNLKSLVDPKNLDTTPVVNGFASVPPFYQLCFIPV

C=C(C)[C@@H]1CC=C(CO)CC1 [(−)-POH, (−)-perillyl alcohol]
Inhibition of CYP1A2 activity (CYP1A2): not significantly inhibited
Enhancement of MDZ 1′-hydroxylation (rCYP3A4; rCYP3A4 in the absence of cytochrome b5, POH 0–100 μM): No significant enhancement
CYP3A4 activity for 1′-OH-MDZ formation compared with control without (−)-POH (rCYP3A4; rCYP3A4 in the presence of cytochrome b5, 100 μM (−)-POH, 5 μM MDZ): 1.57 fold
Ki (CYP2B6 [1]): 3.78 µM
Formation of 1′-OH-MDZ relative to control without (−)-POH (CYP3A4 [2]; human, 10 min, 50 μM, pH 7.4): 1.83 fold
Effect on CYP3A4 (midazolam) activity, MDZ 1′-hydroxylation (CYP3A4 [2]; pooled HLMs, substrate midazolam, test compound 0–50 μM): Stimulation *
IC50 (CYP2A6; IC50, pre-incubation with NADPH, 30 min pre-incubation with NADPH): 23.4 µM
IC50 (CYP2A6; IC50, pre-incubation without NADPH, 30 min pre-incubation without NADPH): 24.3 µM
IC50 fold-shift, CYP2A6 (CYP2A6; IC50 without NADPH/IC50 with NADPH): 1.04
Effect on CYP3A4-mediated metabolism of atorvastatin, buspirone, donepezil, nifedipine, and tadalafil (CYP3A4 [3]): did not significantly affect
Type of inhibition, CYP2B6 (CYP2B6 [4]; best fit by AICc and Sy.x, Dixon plots): mixed inhibition model
Ki, CYP2B6, uncompetitive model (not selected) (CYP2B6 [4]; pooled HLMs, bupropion, 95% CI in parentheses): 4.54 (3.62–5.56) μM
IC50 (CYP2C9): > 50 µM
